# Experimental data as given in patent publication US11427553B2, “Dihydrooxadiazinones” (Bayer Aktiengesellschaft, priority 2017, dated 2022).
# Columns and labels:
# HeLa cells = test: Assay 1 cell proliferation measurement (CTG, 72 h), HeLa; type: cell-based, human; settings: Homo sapiens, HeLa; Assay 1, 72 h, Cell Titer Glo; read-out: HeLa IC50 [nM] (Cervical cancer)
# Summary of the method: (§1)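 CellTiter-Glo luminescence was read at treatment start (0 h plate) and after 72 h compound exposure at 37 °C. Doses were 2.5-fold steps, ten concentrations, top 100 nM final, 0.3% DMSO. Growth inhibition was scaled between 0 h and vehicle values, and IC50 was obtained by 4-parameter fitting.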
# SK-MEL-3 cells = test: Assay 1 cell proliferation measurement (CTG, 72 h), SK-MEL-3; type: cell-based, human; settings: Homo sapiens, SK-MEL3; Assay 1, 72 h, Cell Titer Glo; read-out: SK-MEL-3 IC50 [nM] (melanoma)
# Summary of the method: as §1
# human full length PDE3A = human full length PDE3A (Homo sapiens (Human), UniProt Q14432); test: Assay 4 PDE3A enzyme inhibition (3H-cAMP SPA); type: biochemical; settings: Sf9 cell extract
# Chain of human full length PDE3A (Q14432 whole entry): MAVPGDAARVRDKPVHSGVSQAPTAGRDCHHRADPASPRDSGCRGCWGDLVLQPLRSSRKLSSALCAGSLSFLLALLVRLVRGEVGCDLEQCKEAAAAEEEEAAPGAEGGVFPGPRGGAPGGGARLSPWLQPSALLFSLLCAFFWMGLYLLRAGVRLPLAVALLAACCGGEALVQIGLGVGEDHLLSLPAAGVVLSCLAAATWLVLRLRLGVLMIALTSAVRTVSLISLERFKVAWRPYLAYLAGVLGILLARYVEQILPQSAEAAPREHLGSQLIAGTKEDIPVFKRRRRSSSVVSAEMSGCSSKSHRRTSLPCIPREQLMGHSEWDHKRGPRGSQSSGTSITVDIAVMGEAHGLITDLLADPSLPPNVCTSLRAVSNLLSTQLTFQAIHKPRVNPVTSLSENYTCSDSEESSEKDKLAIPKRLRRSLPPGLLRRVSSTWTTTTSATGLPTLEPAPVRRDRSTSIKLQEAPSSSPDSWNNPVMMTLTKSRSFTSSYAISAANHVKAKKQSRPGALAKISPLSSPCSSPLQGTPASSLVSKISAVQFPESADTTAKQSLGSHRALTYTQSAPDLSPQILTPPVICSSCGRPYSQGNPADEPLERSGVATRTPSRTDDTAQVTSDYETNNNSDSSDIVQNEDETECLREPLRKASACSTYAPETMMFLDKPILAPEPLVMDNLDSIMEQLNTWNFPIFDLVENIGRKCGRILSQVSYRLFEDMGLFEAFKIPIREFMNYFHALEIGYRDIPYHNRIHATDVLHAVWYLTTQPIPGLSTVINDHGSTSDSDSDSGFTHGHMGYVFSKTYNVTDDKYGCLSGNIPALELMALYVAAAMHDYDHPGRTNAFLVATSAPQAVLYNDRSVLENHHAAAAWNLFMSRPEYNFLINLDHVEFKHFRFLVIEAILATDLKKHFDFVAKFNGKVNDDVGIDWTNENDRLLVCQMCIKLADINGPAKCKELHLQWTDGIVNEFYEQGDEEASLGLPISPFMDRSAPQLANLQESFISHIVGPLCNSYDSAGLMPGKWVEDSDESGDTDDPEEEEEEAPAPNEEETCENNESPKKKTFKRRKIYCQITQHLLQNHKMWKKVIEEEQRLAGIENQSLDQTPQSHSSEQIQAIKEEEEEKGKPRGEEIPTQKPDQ
# Summary of the method: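 Hydrolysis of [8-3H]cAMP by Sf9-expressed full-length PDE3A was measured by scintillation proximity, with enzyme diluted to keep kinetics linear and substrate consumption below 70%. Incubation ran 60 min at room temperature at pH 7.5.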
# human full length PDE3B = human full length PDE3B (Homo sapiens (Human), UniProt Q13370); test: Assay 5 PDE3B enzyme inhibition (3H-cAMP SPA); type: biochemical; settings: Sf9 cell extract
# Chain of human full length PDE3B (Q13370 whole entry): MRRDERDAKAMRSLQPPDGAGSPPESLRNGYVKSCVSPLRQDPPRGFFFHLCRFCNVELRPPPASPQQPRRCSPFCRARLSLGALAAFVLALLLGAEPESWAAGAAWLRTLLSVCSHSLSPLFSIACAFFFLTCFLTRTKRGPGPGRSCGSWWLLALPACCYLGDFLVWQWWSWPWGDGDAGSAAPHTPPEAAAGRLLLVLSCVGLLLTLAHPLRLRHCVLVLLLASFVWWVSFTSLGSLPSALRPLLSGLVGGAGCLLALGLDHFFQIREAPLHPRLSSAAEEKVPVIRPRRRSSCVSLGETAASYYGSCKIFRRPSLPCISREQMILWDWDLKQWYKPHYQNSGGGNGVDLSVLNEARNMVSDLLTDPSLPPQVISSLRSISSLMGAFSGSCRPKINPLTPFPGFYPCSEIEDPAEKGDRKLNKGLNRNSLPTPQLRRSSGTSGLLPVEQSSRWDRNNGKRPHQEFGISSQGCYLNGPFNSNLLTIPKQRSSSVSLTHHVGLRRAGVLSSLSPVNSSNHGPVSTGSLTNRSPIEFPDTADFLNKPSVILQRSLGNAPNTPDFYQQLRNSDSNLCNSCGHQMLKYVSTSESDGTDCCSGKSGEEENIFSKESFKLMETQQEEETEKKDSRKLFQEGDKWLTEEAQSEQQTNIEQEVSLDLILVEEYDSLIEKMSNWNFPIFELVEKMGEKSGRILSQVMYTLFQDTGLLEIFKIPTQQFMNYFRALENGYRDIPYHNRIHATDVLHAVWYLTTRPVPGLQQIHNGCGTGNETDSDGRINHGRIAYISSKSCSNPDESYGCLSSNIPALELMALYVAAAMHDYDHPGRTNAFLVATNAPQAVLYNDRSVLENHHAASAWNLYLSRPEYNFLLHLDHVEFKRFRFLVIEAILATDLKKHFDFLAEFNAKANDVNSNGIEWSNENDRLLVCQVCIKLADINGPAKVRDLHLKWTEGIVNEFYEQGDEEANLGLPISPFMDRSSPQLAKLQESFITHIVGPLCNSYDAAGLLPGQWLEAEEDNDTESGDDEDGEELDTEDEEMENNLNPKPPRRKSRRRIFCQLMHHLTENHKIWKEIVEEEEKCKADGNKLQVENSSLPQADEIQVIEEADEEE
# Summary of the method: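 Inhibition was measured by scintillation proximity using [8-3H]adenosine 3′,5′-cyclic phosphate as substrate and full-length human PDE3B from an Sf9 overexpression extract, run one hour at room temperature at pH 7.5.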
Compound,IC50 (HeLa cells),IC50 (SK-MEL-3 cells),IC50 (human full length PDE3A),IC50 (human full length PDE3B)
"COc1ccccc1-c1ccc(C2=NNC(=O)O[C@H]2C)cc1C(F)(F)F [Example 180, (6S)-5-[2′-Methoxy-2-(trifluoromethyl)[1,1′-biphenyl]-4-yl]-6-methyl-3,6-dihydro-2H-1,3,4-oxadiazin-2-one]",36 nM,48 nM,250 nM,250 nM
"C[C@@H]1OC(=O)NN=C1c1ccc(-c2cccc(F)c2)c(C(F)(F)F)c1 [Example 181, (6S)-5-[3′-Fluoro-2-(trifluoromethyl)[1,1′-biphenyl]-4-yl]-6-methyl-3,6-dihydro-2H-1,3,4-oxadiazin-2-one]",3 nM,6 nM,74 nM,77 nM
"Cc1ccncc1-c1ccc(C2=NNC(=O)O[C@H]2C)cc1C(F)(F)F [Example 182, (6S)-6-Methyl-5-[4-(4-methylpyridin-3-yl)-3-(trifluoromethyl)phenyl]-3,6-dihydro-2H-1,3,4-oxadiazin-2-one]",39 nM,54 nM,220 nM,260 nM
"Cc1cnccc1-c1ccc(C2=NNC(=O)O[C@H]2C)cc1C(F)(F)F [Example 183, (6S)-6-Methyl-5-[4-(3-methylpyridin-4-yl)-3-(trifluoromethyl)phenyl]-3,6-dihydro-2H-1,3,4-oxadiazin-2-one]",15 nM,22 nM,200 nM,170 nM
"Cc1cc(-c2ccc(C3=NNC(=O)O[C@H]3C)cc2C(F)(F)F)ccn1 [Example 184, (6S)-6-Methyl-5-[4-(2-methylpyridin-4-yl)-3-(trifluoromethyl)phenyl]-3,6-dihydro-2H-1,3,4-oxadiazin-2-one]",5 nM,6 nM,66 nM,57 nM
"C[C@@H]1OC(=O)NN=C1c1ccc(-c2ccc3cc[nH]c3c2)c(C(F)(F)F)c1 [Example 185, (6S)-5-[4-(1H-Indol-6-yl)-3-(trifluoromethyl)phenyl]-6-methyl-3,6-dihydro-2H-1,3,4-oxadiazin-2-one]",4 nM,6 nM,49 nM,48 nM
"COc1ccc(-c2ccc(C3=NNC(=O)O[C@H]3C)cc2C(F)(F)F)cn1 [Example 187, (6S)-5-[4-(6-Methoxypyridin-3-yl)-3-(trifluoromethyl)phenyl]-6-methyl-3,6-dihydro-2H-1,3,4-oxadiazin-2-one]",23 nM,40 nM,81 nM,100 nM
"COc1ccc(-c2ccc(C3=NNC(=O)O[C@H]3C)cc2C(F)(F)F)cc1 [Example 188, (6S)-5-[4′-Methoxy-2-(trifluoromethyl)[1,1′-biphenyl]-4-yl]-6-methyl-3,6-dihydro-2H-1,3,4-oxadiazin-2-one]",22 nM,38 nM,90 nM,100 nM
"Cc1ccc(-c2ccc(C3=NNC(=O)O[C@H]3C)cc2C(F)(F)F)cc1 [Example 189, (6S)-6-Methyl-5-[4′-methyl-2-(trifluoromethyl)[1,1′-biphenyl]-4-yl]-3,6-dihydro-2H-1,3,4-oxadiazin-2-one]",6 nM,12 nM,190 nM,200 nM
"O=C1NN=C(c2cc(F)c(-c3cnn(C(F)F)c3)c(C(F)(F)F)c2)CO1 [Example 193, 5-{4-[1-(Difluoromethyl)-1H-pyrazol-4-yl]-3-fluoro-5-(trifluoromethyl)phenyl}-3,6-dihydro-2H-1,3,4-oxadiazin-2-one]",5 nM,9 nM,195 nM,215 nM
"O=C1NN=C(c2ccc(CN3CCOCC3)c(C(F)(F)F)c2)CO1 [Example 197, 5-{4-[(Morpholin-4-yl)methyl]-3-(trifluoromethyl)phenyl}-3,6-dihydro-2H-1,3,4-oxadiazin-2-one]",5 nM,10 nM,650 nM,803 nM
"Cc1ccc(-c2ccc(C3=NNC(=O)OC3)cc2C(F)F)cn1 [Example 200, 5-[3-(Difluoromethyl)-4-(6-methylpyridin-3-yl)phenyl]-3,6-dihydro-2H-1,3,4-oxadiazin-2-one]",10 nM,22 nM,34 nM,66 nM
"O=C1NN=C(c2ccc(C3=CCCC3)c(C(F)F)c2)CO1 [Example 201, 5-[4-(Cyclopent-1-en-1-yl)-3-(difluoromethyl)phenyl]-3,6-dihydro-2H-1,3,4-oxadiazin-2-one]",3 nM,9 nM,86 nM,77 nM
"O=C1NN=C(c2ccc(-c3cn[nH]c3)c(C(F)F)c2)CO1 [Example 202, 5-(3-(difluoromethyl)-4-(1H-pyrazol-4-yl)phenyl)-3H-1,3,4-oxadiazin-2(6H)-one]",5 nM,12 nM,76 nM,63 nM
"O=C1NN=C(c2ccc(NC3CCOCC3)c(C(F)(F)F)c2)CO1 [Example 205, 5-{4-[(Oxan-4-yl)amino]-3-(trifluoromethyl)phenyl}-3,6-dihydro-2H-1,3,4-oxadiazin-2-one]",4 nM,5 nM,53 nM,123 nM
"O=C1NN=C(c2ccc(NC[C@H](O)C(F)(F)F)c(C(F)(F)F)c2)CO1 [Example 209, 5-[4-{[3,3,3-Trifluoro-(2S)-hydroxypropyl]amino}-3-(trifluoromethyl)phenyl]-3,6-dihydro-2H-1,3,4-oxadiazin-2-one]",7 nM,7 nM,275 nM,533 nM
"CC(C)(O)CNc1ccc(C2=NNC(=O)OC2)cc1C(F)(F)F [Example 210, 5-{4-[(2-Hydroxy-2-methylpropyl)amino]-3-(trifluoromethyl)phenyl}-3,6-dihydro-2H-1,3,4-oxadiazin-2-one]",6 nM,8 nM,140 nM,363 nM
"O=C1NN=C(c2ccc(N[C@H]3CC[C@H](O)CC3)c(C(F)(F)F)c2)CO1 [Example 211, (trans)-5-[4-{[4-Hydroxycyclohexyl]amino}-3-(trifluoromethyl)phenyl]-3,6-dihydro-2H-1,3,4-oxadiazin-2-one]",2 nM,2 nM,29 nM,54 nM
"O=C1NN=C(c2ccc(NCC3CC3)c(C(F)(F)F)c2)CO1 [Example 212, 5-{4-[(Cyclopropylmethyl)amino]-3-(trifluoromethyl)phenyl}-3,6-dihydro-2H-1,3,4-oxadiazin-2-one]",1 nM,2 nM,26 nM,24 nM
"CC1(CNc2ccc(C3=NNC(=O)OC3)cc2C(F)(F)F)COC1 [Example 213, 5-[4-{[(3-Methyloxetan-3-yl)methyl]amino}-3-(trifluoromethyl)phenyl]-3,6-dihydro-2H-1,3,4-oxadiazin-2-one]",14 nM,21 nM,68 nM,71 nM
"COCCCNc1ccc(C2=NNC(=O)OC2)cc1C(F)(F)F [Example 214, 5-{4-[(3-Methoxypropyl)amino]-3-(trifluoromethyl)phenyl}-3,6-dihydro-2H-1,3,4-oxadiazin-2-one]",1 nM,2 nM,59 nM,73 nM
"C[C@@H](O)CNc1ccc(C2=NNC(=O)OC2)cc1C(F)(F)F [Example 216, 5-[4-{[(2R)-2-Hydroxypropyl]amino}-3-(trifluoromethyl)phenyl]-3,6-dihydro-2H-1,3,4-oxadiazin-2-one]",6 nM,7 nM,103 nM,167 nM
"C[C@@H](O)CCNc1ccc(C2=NNC(=O)OC2)cc1C(F)(F)F [Example 217, 5-[4-{[(3R)-3-Hydroxybutyl]amino}-3-(trifluoromethyl)phenyl]-3,6-dihydro-2H-1,3,4-oxadiazin-2-one]",14 nM,16 nM,65 nM,210 nM
"C[C@H](O)CNc1ccc(C2=NNC(=O)OC2)cc1C(F)(F)F [Example 218, 5-[4-{[(2S)-2-Hydroxypropyl]amino}-3-(trifluoromethyl)phenyl]-3,6-dihydro-2H-1,3,4-oxadiazin-2-one]",3 nM,4 nM,35 nM,89 nM
"O=C1NN=C(c2ccc(NCC3(O)CCC3)c(C(F)(F)F)c2)CO1 [Example 219, 5-[4-{[(1-Hydroxycyclobutyl)methyl]amino}-3-(trifluoromethyl)phenyl]-3,6-dihydro-2H-1,3,4-oxadiazin-2-one]",8 nM,13 nM,58 nM,97 nM
"CC(C)CCNc1ccc(C2=NNC(=O)OC2)cc1C(F)(F)F [Example 220, 5-{4-[(3-Methylbutyl)amino]-3-(trifluoromethyl)phenyl}-3,6-dihydro-2H-1,3,4-oxadiazin-2-one]",6 nM,14 nM,90 nM,131 nM
"CC(C)CNc1ccc(C2=NNC(=O)OC2)cc1C(F)(F)F [Example 221, 5-{4-[(2-Methylpropyl)amino]-3-(trifluoromethyl)phenyl}-3,6-dihydro-2H-1,3,4-oxadiazin-2-one]",1 nM,2 nM,28 nM,56 nM
